# Tests used:
# [1] = tested on: HeLa cells; assay: Pilot cell viability bioassay, saponin + 1.5 pM dianthin-EGF, 72 h; format: cell-based; conditions: 10 microgram/ml saponin + […] dianthin-EGF
# Method: HeLa cells were incubated for 72 h with the following constructs and cell viability before and after the 72 h-incubation was assessed. In the experiments, cells were exposed to 1.5 pM dianthin-EGF conjugate. A negative control were cells incubated with buffer vehicle and 10 microgram/ml saponin, without dianthin-EGF. Cell viability was set to 100% for the control in which both saponin and EGF-dianthin were omitted. […] Cell viability after 72 h was essentially 0%. For the chemically modified saponin variants, 10 microgram/ml saponin was tested in combination with 1.5 pM dianthin-EGF.
# [2] = Critical micellar concentration (ANS fluorescence); format: physicochemical; conditions: for CMC: PBS (Tables A7, A9); for CMC compared with native (underivatised) saponin: comparison in words
# Method: The critical micellar concentration (CMC) of saponins derived from Saponaria officinalis (SO) (Table A7) and derived from Quillaja saponaria (QS) (Table A8, and Table A9) was determined by the method of DeVendittis et al. (A fluorimetric method for the estimation of the critical micelle concentration of surfactants, Analytical Biochemistry, Volume 115, Issue 2, August 1981, Pages 278-286) as follows:
# The emission spectrum of 8-Anilinonaphthalene-1-sulfonic acid (ANS) in either purified water (MQ) or PBS (Dulbecco's PBS+/+) was determined at dry weight concentrations of saponins ranging from 1 to 1400 μM to cover the range below and above the CMC. Above the CMC, the fluorescence yield of ANS increases and the wavelength of maximum emission decreases due to portioning of the fluorescent dye into micelles. Fluorescence yields were recorded on a Fluoroskan Ascent FL (Thermo Scientific) at an excitation wavelength of 355 nm, and an emission wavelength of 460 nm. 6 μg at a concentration of 75.86 μM of ANS were used per sample and measurement.
# [3] = tested on: EGFR expressing cells (A431); assay: Cell viability assay (MTS): saponin titrated on fixed 10 pM targeted toxin; format: cell-based; conditions: without targeted toxin
# [4] = tested on: HeLa (EGFR+) cells; conditions: saponin as single compound
# Method: To extend this test, saponins from other sources were analyzed. A saponin purified from a root extract of Gypsophila elegans M. Bieb. […] FIG. 63C).
# [5] = tested on: A431 (EGFR++) cells; assay: Cell viability, saponin derivative with or without […] EGFdianthin; conditions: A431, saponin as single compound
# [6] = tested on: A2058 (EGFR−) cells; assay: as above; conditions: A2058, saponin as single compound
# [7] = tested on: EGFR expressing cells (HeLa); assay: cells; conditions: Homo sapiens, HeLa, read-out: IC50 endosomal escape enhancing activity, in HeLa or A431, + 5 pM EGF-dianthin, summary range
# [8] = tested on: HeLa cells; assay: cells; conditions: comparison in words
# [9] = tested on: human red blood cells; assay: cells; conditions: comparison in words
# Method: Red blood cells (RBCs) were isolated from a buffy coat using a Ficoll gradient. The obtained RBC pellet (˜4-5 ml) was washed 2× with 50 ml DPBS (without Ca^2+/Mg^2+, PAN-Biotech GmbH). Cells were pelleted by centrifugation for 10 min, 800×g at RT. RBC were counted and resuspended at 500.000.000 c/ml in DPBS (without Ca^2+/Mg^2+), based on total cell count.
# Saponin dilutions were prepared in DPBS (with Ca^2+/Mg^2+, PAN-Biotech GmbH), at 1.11×final strength. For positive lysis control a 0.02% Triton-X100 solution was prepared in DPBS^+/+. Of all compound solutions 135 μl was dispensed/well in a 96 well V-bottom plate. To this 15 μl RBC suspension was added and mixed shortly (10 sec-600 rpm). The plate was incubated 30 min at RT, with gentle agitation. Afterwards the plate was spun for 10 min at 800×g to pellet the RBC and 100-120 μl supernatant was transferred to a standard 96 wp (96 well-plate).
# [10] = tested on: HSP27 mRNA in A431 cells; assay: HSP27 mRNA gene silencing analysis; format: cell-based; conditions: A431, without oligonucleotide
# Description: (§1) RNA from cells was isolated and analysed according to standard protocols (Biorad). qPCR primers that were used are indicated in Table A10.
# [11] = tested on: A431 cells; format: cell-based; conditions: A431, Table A6; read-out: IC50 nM (Toxicity)
# [12] = tested on: HSP27 mRNA in SK-BR-3 cells; assay: HSP27 mRNA gene silencing analysis; format: cell-based; conditions: with and without SO1861-Ald-EMCH, SK-BR-3 (FIG. 58)
# Description: as §1
Compound,Cell viability after 72 h [1],CMC [2],cell killing activity of saponin alone [3],general toxicity in absence of EGFdianthin [4],general toxicity in absence of EGFdianthin [5],general toxicity in absence of EGFdianthin [6],IC50 [7],cytotoxicity compared with unmodified saponin [8],hemolytic activity compared with unmodified saponin [9],CMC compared with native (underivatised) saponin [2],HSP27 gene silencing activity of saponin derivative alone [10],IC50 [11],endosomal escape/gene silencing enhancement factor compared with HSP27BNA [12]
"CC(=O)OC1C(C)OC(OC2C(C)OC(OC(=O)[C@]34CCC(C)(C)CC3C3=CCC5[C@@]6(C)CC[C@H](OC7OC(C(=O)O)C(O)C(OC8OCC(O)C(O)C8O)C7OC7OC(CO)C(O)C(O)C7O)[C@@](C)(C=O)C6CC[C@@]5(C)[C@]3(C)C[C@H]4O)C(OC3OC(C)C(OC4OCC(O)C(OC5OC(CO)C(O)C(O)C5O)C4O)C(O)C3O)C2O)C(O)C1OC1OCC(O)C(O)C1O (some centres unmarked) [SO1861, reference compound]",~0%,185 µM,no cell killing activity,strong cell viability reduction,strong cell viability reduction,strong cell viability reduction,,,,,,,
CC(=O)OC1C(C)OC(OC2C(C)OC(OC(=O)[C@]34CCC(C)(C)CC3C3=CCC5[C@@]6(C)CC[C@H](OC7OC(C(=O)O)C(O)C(OC8OCC(O)C(O)C8O)C7OC7OC(CO)C(O)C(O)C7O)[C@@](C)(/C=N/NC(=O)CCCCCN7C(=O)C=CC7=O)C6CC[C@@]5(C)[C@]3(C)C[C@H]4O)C(OC3OC(C)C(OC4OCC(O)C(OC5OC(CO)C(O)C(O)C5O)C4O)C(O)C3O)C2O)C(O)C1OC1OCC(O)C(O)C1O (some centres unmarked) [SO1861-Ald-EMCH],reduced cell viability,> 800 µM,no cell killing activity,> 25.000 nM,> 25.000 nM,> 25.000 nM,0.6 to 2 µM,less cytotoxic,less hemolytically active,higher CMC values,no HSP27 gene silencing activity,,
CC(=O)OC1C(C)OC(OC2C(C)OC(OC(=O)[C@]34CCC(C)(C)CC3C3=CCC5[C@@]6(C)CC[C@H](OC7OC(C(=O)NCCN8C(=O)C=CC8=O)C(O)C(OC8OCC(O)C(O)C8O)C7OC7OC(CO)C(O)C(O)C7O)[C@@](C)(C=O)C6CC[C@@]5(C)[C@]3(C)C[C@H]4O)C(OC3OC(C)C(OC4OCC(O)C(OC5OC(CO)C(O)C(O)C5O)C4O)C(O)C3O)C2O)C(O)C1OC1OCC(O)C(O)C1O (some centres unmarked) [SO1861-Glu-AEM],,,,,,,,,,lower CMC values,,> 100000 nM,
"HSP27LNA: HSP27 LNA oligo 5′-ggcacagccagtggcg-3′ (GGCACAGCCAGTGGCG; LNA-modified, pattern not given here)",,,,,,,,,,,,,comparable

# — patent US20230357310A1, “Saponin derivatives with improved therapeutic window” (priority 2019, published 2023)
